Laboratory results taken from patent publication US7119229B2 (priority 2001, dated 2006).

Key:
ICR mice = assay: Acute (intravenous administration) toxicity assay; settings: for Days for the test (death) Total: deaths/mice
[1] = test system: BALB/c mouse spleen cells, B cells activated with lipopolysaccharide (LPS); assay: Immunosuppressive effect test using BALB/c mouse spleen cells, LPS (B cells); assay type: cell-based; settings: 20 μg/ml lipopolysaccharide, 72 hours, MTS, FIGS. 2 and 3
Description: This test was carried out to determine the immunosuppressive effect of an immunosuppressive candidate material by checking anti-proliferation of T cells and B cells. To identify the proliferation inhibitory extent, responding cells (BALB/c mouse spleen cells) were treated with an immunosuppressive candidate material, lipopolysaccharide (LPS) as a B cell activator and concanvalin A (ConA) as a T cell activator. It is known that the responding cells treated with LPS induce proliferation of B cells and those treated with ConA induce proliferation of T cells.
Responding cells (BALB/c mouse spleen cells) were seeded into each well of 96-well plates at a concentration of 2×10^5 cells/well. […] After culturing for 72 hours at a CO2 incubator, a 20 μl MTS solution was added to each well, followed by further culturing for 2 to 4 hours and measuring OD at 490 nm using ELISA.

[2] = test system: BALB/c mouse spleen cell (responding) and DBA/2 mouse spleen cell (stimulating); assay type: cell-based; settings: MLR, FIG. 1
Description: MLR tests were carried out to determine the immunosuppressive effect of an immunosuppressive candidate material. When a responding cell (BALB/c mouse spleen cell) and a stimulating cell (DBA/2 mouse spleen cell) were cultured separately, the cells grew little. On the contrary, when the cells were simultaneously cultured, the cells were proliferated due to induction of an antigen-antibody reaction. The proliferated cells were treated with the immunosuppressive candidate material for measurement of the proliferation inhibitory extent.
After culturing for 72 hours at a CO2 incubator, a 20 μl MTS solution was added to each well, followed by further culturing for 2 to 4 hours and measuring OD at […] by using ELISA.

COc1cc2c(c(OC)c1OC)-c1ccc(OC)c(=O)cc1[C@@H](NC(=O)c1cccc(CO[N+](=O)[O-])c1)CC2 [Compound 6, 3-nitrooxymethyl-N-(1,2,3,10-tetramethoxy-9-oxo-5,6,7,9-tetrahydro-benzo[a]heptarene-7-yl)-benzamide]
Days for the test (death) Total (ICR mice; 5 mg/kg): 0/5
Days for the test (death) Total (ICR mice; 10 mg/kg): 0/5
Days for the test (death) Total (ICR mice; 25 mg/kg): 0/2
Days for the test (death) 1 (ICR mice; 50 mg/kg, day 1): 3
Days for the test (death) Total (ICR mice; 50 mg/kg): 3/3
anti-proliferation of B cells [1]: remarkable anti-proliferous effect
immunosuppressive effect [2]: good immunosuppressive effect
